In patent US20260242393A1, “Preparation Method for and Use of Dihydrothienopyrimidine Derivative” (Innovstone Therapeutics Limited, priority 2023, published 2026) one finds IC50 data, which are given here for 26 molecules.

This assay has as its target T1, PDE4B2 (Homo sapiens, UniProt Q07343).
T1 construct: purchased BPS bioscience
In words: In vitro PDE4B2 enzyme inhibitory activity (AMP-Glo). The class given is biochemical.

Where [1] appears, read: PDE4B2 enzyme inhibition, read-out: PDE4B2 IC50.
[2] abbreviates: read-out: IC50 values of PDE4B2 enzyme inhibition.

Where two headings read alike, the source gives them in different places.

T1 sequence (Q07343 1-564 isoform Q07343-2): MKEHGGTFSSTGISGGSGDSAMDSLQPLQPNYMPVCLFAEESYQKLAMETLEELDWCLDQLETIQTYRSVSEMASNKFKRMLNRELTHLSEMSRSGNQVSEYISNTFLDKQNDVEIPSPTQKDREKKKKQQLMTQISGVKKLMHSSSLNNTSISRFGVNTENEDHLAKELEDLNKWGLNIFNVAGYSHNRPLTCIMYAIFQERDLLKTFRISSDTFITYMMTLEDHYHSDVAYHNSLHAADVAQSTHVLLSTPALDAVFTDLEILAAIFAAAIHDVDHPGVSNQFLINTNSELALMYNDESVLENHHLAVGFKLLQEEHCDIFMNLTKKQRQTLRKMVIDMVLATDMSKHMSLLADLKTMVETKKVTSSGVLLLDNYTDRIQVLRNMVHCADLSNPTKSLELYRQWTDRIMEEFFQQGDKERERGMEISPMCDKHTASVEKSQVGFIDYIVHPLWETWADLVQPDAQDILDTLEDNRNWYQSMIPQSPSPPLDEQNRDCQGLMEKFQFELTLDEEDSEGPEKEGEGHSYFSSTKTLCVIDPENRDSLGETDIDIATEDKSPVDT
Protocol: 2.1.1 Preparing stock solutions of compounds in DMSO: Compound powders were dissolved in 100% DMSO to produce 10 mM stock solutions, and oscillated in a shaker until the compounds were completely dissolved.
2.1.3 Preparing working stock solutions: a) A solution of Roflumilast (reference compound) in DMSO was diluted to 60 μM, and then serially diluted 4-fold into 10 concentration gradients. B) The solutions of the test compounds in DMSO were diluted to 200 μM, and then serially diluted 3-fold. C) A 200× positive control (60 μM Roflumilast) and a 200× vehicle control (100% DMSO) were prepared. D) The assay plate was centrifuged at 1000 rpm for 1 minute.
(1) 20 nL of compound dilution solutions were transferred with Echo 550 into each well of the assay plate.
(2) The assay plate was sealed and centrifuged at 1000 rpm for 1 minute.
(3) 2×PDE4B2/PDE4D2 was prepared in an ice-cold PDE assay buffer.
(4) 2 μL of 2×PDE4B2/PDE4D2 was added to each well of the assay plate prepared in step 2.
(5) The assay plate was sealed and allowed to equilibrate at room temperature for 10 minutes.
(6) 2× Cyclic-3′,5′-AMP was prepared in a PDE assay buffer.
7) 2 μL of 2× Cyclic-3′,5′-AMP (prepared in step 6) was added to each well of the assay plate (prepared in step 5) to initiate the reaction. The plate was incubated at room temperature for 60 minutes.
8) 4 μL AMP-Glo Reagent I was added, and the plate was incubated at room temperature for 60 minutes.
9) 8 μL AMP detection reagent was added. The plate was incubated at room temperature for 60 minutes.
10) The RLU signal was read on an Envision 2105 plate reader.

In the case of `N#Cc1ccc2c(c1)CN(c1nc3c(c(NC4(CO)CCC4)n1)[S+]([O-])CC3)C2` (racemic) [Compound 27, (R/S)-2-(4-((1-(hydroxymethyl)cyclobutyl)amino)-5-oxido-6,7-dihydrothieno[3,2-d]pyrimidin-2-yl)isoindoline-5-carbonitrile], the IC50 under setting [1] was in the range of 2 to 5 nM.
`[2H]C([2H])([2H])OC1(c2ccc(Cl)cc2)CN(c2nc3c(c(NC4CCOCC4)n2)[S+]([O-])CC3)C1` (racemic) [Compound 94, (R/S)-2-(3-(4-chlorophenyl)-3-(methoxy-d3)azetidin-1-yl)-4-((tetrahydro-2H-pyran-4-yl)amino)-6,7-dihydrothieno[3,2-d]pyrimidine 5-oxide]: the half-inhibitory concentration (IC50) under setting [1] was ≤ 2 nM and the IC50 under setting [2] is < 1 nM.
In the same order, the values of `COC1(c2ccc(Cl)c(F)c2)CN(c2nc3c(c(NC4CCOCC4)n2)[S+]([O-])CC3)C1` (racemic) [Compound 86, (R/S)-2-(3-(4-chloro-3-fluorophenyl)-3-methoxyazetidin-1-yl)-4-((tetrahydro-2H-pyran-4-yl)amino)-6,7-dihydrothieno[3,2-d]pyrimidine 5-oxide] are ≤ 2 nM and < 1 nM.
For `COc1cc(C2(OC)CN(c3nc4c(c(NC5(CO)CCC5)n3)[S+]([O-])CC4)C2)ccc1Cl` (racemic) [Compound 79, (R/S)-2-(3-(4-chloro-3-methoxyphenyl)-3-methoxyazetidin-1-yl)-4-((1-(hydroxymethyl)cyclobutyl)amino)-6,7-dihydrothieno[3,2-d]pyrimidine 5-oxide], in that order: ≤ 2 nM and < 1 nM.
`CNc1ccc(C2(OC)CN(c3nc4c(c(NC5(CO)CCC5)n3)[S+]([O-])CC4)C2)cc1` (racemic) [Compound 112, (R/S)-4-((1-(hydroxymethyl)cyclobutyl)amino)-2-(3-methoxy-3-(4-(methylamino)phenyl)azetidin-1-yl)-6,7-dihydrothieno[3,2-d]pyrimidine 5-oxide]: the IC50 under setting [1] was ≤ 2 nM.
The same measure, in the same setting: the value for `CC(C)(O)c1ccc2c(c1)CN(c1nc3c(c(NC4(CO)CCC4)n1)[S+]([O-])CC3)C2` (racemic) [Compound 29, (R/S)-4-((1-(hydroxymethyl)cyclobutyl)amino)-2-(5-(2-hydroxypropan-2-yl)isoindolin-2-yl)-6,7-dihydrothieno[3,2-d]pyrimidine 5-oxide] was ≤ 2 nM; that for `[O-][S+]1CCc2nc(N3CC(O)(c4ccc(Cl)c(F)c4)C3)nc(NC3(CO)CCC3)c21` (racemic) [Compound 80, (R/S)-2-(3-(4-chloro-3-fluorophenyl)-3-hydroxyazetidin-1-yl)-4-((1-(hydroxymethyl)cyclobutyl)amino)-6,7-dihydrothieno[3,2-d]pyrimidine 5-oxide] was 2 to 5 nM.
With `COC1(c2ccc(Cl)cc2)CN(c2nc3c(c(NC4(CO)CCC4)n2)[S+]([O-])CC3)C1` (racemic) [Compound 83, (R/S)-2-(3-(4-chlorophenyl)-3-methoxyazetidin-1-yl)-4-((1-(hydroxymethyl)cyclobutyl)amino)-6,7-dihydrothieno[3,2-d]pyrimidine 5-oxide], the IC50 by setting is: under setting [1], ≤ 2 nM; under setting [2], < 1 nM.
Take `[O-][S+]1CCc2nc(N3Cc4ccc(OC(F)F)cc4C3)nc(NC3(CO)CCC3)c21` (racemic) [Compound 87, (R/S)-2-(5-(difluoromethoxy)isoindolin-2-yl)-4-((1-(hydroxymethyl)cyclobutyl)amino)-6,7-dihydrothieno[3,2-d]pyrimidine 5-oxide]: under setting [1], the IC50 was in the range of 2 to 5 nM.
Regarding `[O-][S+]1CCc2nc(N3Cc4ccc(Cl)cc4C3)nc(NC3CCOCC3)c21` (racemic) [Compound 85, (R/S)-2-(5-chloroisoindolin-2-yl)-4-((tetrahydro-2H-pyran-4-yl)amino)-6,7-dihydrothieno[3,2-d]pyrimidine 5-oxide], the concentration for half-maximal inhibition (IC50) under setting [1] is ≤ 2 nM.
On the same count and under the same terms, the value for `CC(C)(O)c1ccc2c(c1)CN(c1nc3c(c(NC4CCOCC4)n1)[S+]([O-])CC3)C2` (racemic) [Compound 84, (R/S)-2-(5-(2-hydroxypropan-2-yl)isoindolin-2-yl)-4-((tetrahydro-2H-pyran-4-yl)amino)-6,7-dihydrothieno[3,2-d]pyrimidine 5-oxide] was ≤ 2 nM; that for `COc1ccc2c(c1Cl)CN(c1nc3c(c(NC4(CO)CCC4)n1)[S+]([O-])CC3)C2` (racemic) [Compound 35, (R/S)-2-(4-chloro-5-methoxyisoindolin-2-yl)-4-((1-(hydroxymethyl)cyclobutyl)amino)-6,7-dihydrothieno[3,2-d]pyrimidine 5-oxide] was 2 to 5 nM.
With `COc1ccc(C2(OC)CN(c3nc4c(c(NC5(CO)CCC5)n3)[S+]([O-])CC4)C2)cc1` (racemic) [Compound 100, (R/S)-4-((1-(hydroxymethyl)cyclobutyl)amino)-2-(3-methoxy-3-(4-methoxyphenyl)azetidin-1-yl)-6,7-dihydrothieno[3,2-d]pyrimidine 5-oxide], the half-maximal inhibitory concentration (IC50) runs as follows: under setting [1], ≤ 2 nM; under setting [2], < 1 nM.
Turning to `[O-][S+]1CCc2nc(N3CC(O)(c4ccc(Cl)cc4)C3)nc(NC3(CO)CCC3)c21` (racemic) [Compound 1, (R/S)-2-(3-(4-chlorophenyl)-3-hydroxyazetidin-1-yl)-4-((1-(hydroxymethyl)cyclobutyl)amino)-6,7-dihydrothieno[3,2-d]pyrimidine 5-oxide], the IC50 under setting [1] was in the range of 2 to 5 nM.
On the same count and under the same terms, the value for `COC1(c2ccc(OCC3CC3)cc2)CN(c2nc3c(c(NC4(CO)CCC4)n2)[S+]([O-])CC3)C1` (racemic) [Compound 106, (R/S)-2-(3-(4-(cyclopropylmethoxy)phenyl)-3-methoxyazetidin-1-yl)-4-((1-(hydroxymethyl)cyclobutyl)amino)-6,7-dihydrothieno[3,2-d]pyrimidine 5-oxide] was ≤ 2 nM.
Take `COC1(c2ccc(OC(F)F)cc2)CN(c2nc3c(c(NC4(CO)CCC4)n2)[S+]([O-])CC3)C1` (racemic) [Compound 105, (R/S)-2-(3-(4-(difluoromethoxy)phenyl)-3-methoxyazetidin-1-yl)-4-((1-(hydroxymethyl)cyclobutyl)amino)-6,7-dihydrothieno[3,2-d]pyrimidine 5-oxide]: the IC50 reads like this: under setting [1], ≤ 2 nM; under setting [2], < 1 nM.
For `COC1(c2ccc(Cl)c(F)c2)CN(c2nc3c(c(NC4(CO)CCC4)n2)[S+]([O-])CC3)C1` (racemic) [Compound 82, (R/S)-2-(3-(4-chloro-3-fluorophenyl)-3-methoxyazetidin-1-yl)-4-((1-(hydroxymethyl)cyclobutyl)amino)-6,7-dihydrothieno[3,2-d]pyrimidine 5-oxide], in that order: ≤ 2 nM and < 1 nM.
`COc1cc(C2(O)CN(c3nc4c(c(NC5CCOCC5)n3)[S+]([O-])CC4)C2)ccc1Cl` (racemic) [Compound 81, (R/S)-2-(3-(4-chloro-3-methoxyphenyl)-3-hydroxyazetidin-1-yl)-4-((tetrahydro-2H-pyran-4-yl)amino)-6,7-dihydrothieno[3,2-d]pyrimidine 5-oxide]: the IC50 under setting [1] was 2 to 5 nM.
Still for that read-out and setting: the value for `COc1ccc2c(c1)CN(c1nc3c(c(NC4(CO)CCC4)n1)[S+]([O-])CC3)C2` (racemic) [Compound 26, (R/S)-4-((1-(hydroxymethyl)cyclobutyl)amino)-2-(5-methoxyisoindolin-2-yl)-6,7-dihydrothieno[3,2-d]pyrimidine 5-oxide] was 2 to 5 nM.
Same read-out and setting: the value for `COc1ccc(C2(O)CN(c3nc4c(c(NC5(CO)CCC5)n3)[S+]([O-])CC4)C2)cc1Cl` (racemic) [Compound 4, (R/S)-2-(3-(3-chloro-4-methoxyphenyl)-3-hydroxyazetidin-1-yl)-4-((1-(hydroxymethyl)cyclobutyl)amino)-6,7-dihydrothieno[3,2-d]pyrimidine 5-oxide] was 2 to 5 nM; that for `[O-][S+]1CCc2nc(C3=CCN(c4ncc(Cl)cn4)CC3)nc(NC3(CO)CCC3)c21` (racemic) [Compound 16, (R/S)-2-(1-(5-chloropyrimidin-2-yl)-1,2,3,6-tetrahydropyridin-4-yl)-4-((1-(hydroxymethyl)cyclobutyl)amino)-6,7-dihydrothieno[3,2-d]pyrimidine 5-oxide] was 2 to 5 nM.
For `[2H]C([2H])([2H])OC1(c2ccc(Cl)cc2)CN(c2nc3c(c(NC4(CO)CCC4)n2)[S+]([O-])CC3)C1` (racemic) [Compound 92, (R/S)-2-(3-(4-chlorophenyl)-3-(methoxy-d3)azetidin-1-yl)-4-((1-(hydroxymethyl)cyclobutyl)amino)-6,7-dihydrothieno[3,2-d]pyrimidine 5-oxide], the IC50 by setting is: under setting [1], ≤ 2 nM; under setting [2], < 1 nM.
For `COC1(c2ccc(Cl)cc2)CN(c2nc3c(c(NC4CCOCC4)n2)[S+]([O-])CC3)C1` (racemic) [Compound 88, (R/S)-2-(3-(4-chlorophenyl)-3-methoxyazetidin-1-yl)-4-((tetrahydro-2H-pyran-4-yl)amino)-6,7-dihydrothieno[3,2-d]pyrimidine 5-oxide], the IC50 reads like this: under setting [1], ≤ 2 nM; under setting [2], < 1 nM.
For `COc1ccc(C2(O)CN(c3nc4c(c(Nc5ccc(CC(=O)O)cc5)n3)[S+]([O-])CC4)C2)cc1Cl` (racemic) [Compound 8, (R/S)-2-(4-((2-(3-(3-chloro-4-methoxyphenyl)-3-hydroxyazetidin-1-yl)-5-oxido-6,7-dihydrothieno[3,2-d]pyrimidin-4-yl)amino)phenyl)acetic acid], the IC50 under setting [1] was in the range of 2 to 5 nM.
The same measure, in the same setting: the value for `COc1cc(C2(O)CN(c3nc4c(c(NC5(CO)CCC5)n3)[S+]([O-])CC4)C2)ccc1Cl` (racemic) [Compound 3, (R/S)-2-(3-(4-chloro-3-methoxyphenyl)-3-hydroxyazetidin-1-yl)-4-((1-(hydroxymethyl)cyclobutyl)amino)-6,7-dihydrothieno[3,2-d]pyrimidine 5-oxide] was ≤ 2 nM; that for `COc1ccc(C2(O)CN(c3nc4c(c(NC5(CO)CCC5)n3)[S+]([O-])CC4)C2)cc1` (racemic) [Compound 2, (R/S)-2-(3-hydroxy-3-(4-methoxyphenyl)azetidin-1-yl)-4-((1-(hydroxymethyl)cyclobutyl)amino)-6,7-dihydrothieno[3,2-d]pyrimidine 5-oxide] was 2 to 5 nM.
